Measurements published in patent publication US8835458B2 (Hanmi Science Co., Ltd, priority 2010, dated 2014).
Counter-ions that a name gives are not always drawn. Like-named read-outs stand apart in the source and are kept apart here.

How the values were obtained:
[1] = system: MDA-MB-231 breast cancer cell lines; test: Evaluation of inhibition on cell growth (MTS); format: cell-based; conditions: Homo sapiens, MDA-MB-231, 120 hours
Outline: (§1)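 GI50 values come from growth equations comparing treated, untreated and medium-only wells. Fibroblasts (Hs27, Balb/c3t3) got 72 h compound exposure with SRB read-out at 540 nm after TCA fixing. MDA-MB-231 got 120 h with MTS at 490 nm, across 10 μM˜0.1 nM.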

[2] = Toxicity to normal cells (SRB); format: cell-based, mouse; conditions: mouse, Balb/c3t3 fibroblasts (normal cell line), read-out: BalB/C (GI50)
Outline: as §1

[3] = Toxicity to normal cells (SRB); format: cell-based, human; conditions: human, Hs27 fibroblasts (normal cell line)
Outline: as §1

GI50 [1] | SMILES | GI50 at 72 h [2] | GI50 at 72 h [3]
≤ 0.1 µM | CN[C@@H](C)C(=O)N[C@H](C(=O)N1CCC[C@H]1C(=O)Nc1cc2c(Nc3ccc(Cl)cc3Cl)ncnc2cc1OC)C(C)(C)C [Example 58, (S)—N-(4-(2,4-dichlorophenylamino)-7-methoxyquinazolin-6-yl)-1-((S)-3,3-dimethyl-2-((S)-2-(methylamino)propanamido)butanoyl)pyrrolidine-2-carboxamide hydrochloride] | > 10 µM | > 10 µM
≤ 0.1 µM | CN[C@@H](C)C(=O)N[C@H](C(=O)N1CCC[C@H]1C(=O)Nc1cc2c(Nc3c(F)cccc3F)ncnc2cc1OC)C(C)(C)C [Example 59, (S)—N-(4-(2,6-difluorophenylamino)-7-methoxyquinazolin-6-yl)-1-((S)-3,3-dimethyl-2-((S)-2-(methylamino)propanamido)butanoyl)pyrrolidine-2-carboxamide] | > 10 µM | > 10 µM
0.1 to 1 µM | CCN1CCN(c2ccc(Nc3ncnc4cc(OC)c(NC(=O)[C@@H]5CCCN5C(=O)[C@@H](NC(=O)[C@H](C)NC)C(C)(C)C)cc34)cc2)CC1 [Example 60, (S)-1-((S)-3,3-dimethyl-2-((S)-2-(methylamino)propanamido)butanoyl)-N-(4-(4-(4-ethylpiperazin-1-yl)phenylamino)-7-methoxyquinazolin-6-yl)pyrrolidine-2-carboxamide] | > 10 µM | > 10 µM
≥ 1 µM | CN[C@@H](C)C(=O)N[C@H](C(=O)N1CCC[C@H]1C(=O)Nc1cc2c(Nc3ccc4c(c3)OCO4)ncnc2cc1OC)C(C)(C)C [Example 61, (S)—N-(4-(benzo[d][1,3]dioxol-5-ylamino)-7-methoxyquinazolin-6-yl)-1-((S)-3,3-dimethyl-2-((S)-2-(methylamino)propanamido)butanoyl)pyrrolidine-2-carboxamide] | > 10 µM | > 10 µM
0.1 to 1 µM | CN[C@@H](C)C(=O)N[C@H](C(=O)N1CCC[C@H]1C(=O)Nc1cc2c(Nc3cnc4ccccc4c3)ncnc2cc1OC)C(C)(C)C [Example 62, (S)-1-((S)-3,3-dimethyl-2-((S)-2-(methylamino)propanamido)butanoyl)-N-(7-methoxy-4-(quinoline-3-ylamino)quinazolin-6-yl)pyrrolidine-2-carboxamide dihydrochloride] | > 10 µM | > 10 µM
≤ 0.1 µM | CN[C@@H](C)C(=O)N[C@H](C(=O)N1CCC[C@H]1C(=O)Nc1cc2c(Nc3cccc4ncccc34)ncnc2cc1OC)C(C)(C)C [Example 63, (S)-1-((S)-3,3-dimethyl-2-((S)-2-(methylamino)propanamido)butanoyl)-N-(7-methoxy-4-(quinoline-5-ylamino)quinazolin-6-yl)pyrrolidine-2-carboxamide hydrochloride] | > 10 µM | > 10 µM
≤ 0.1 µM | CN[C@@H](C)C(=O)N[C@H](C(=O)N1CCC[C@H]1C(=O)Nc1cc2c(Nc3ccc(N(C)C)cc3)ncnc2cc1OC)C(C)(C)C [Example 64, (S)-1-((S)-3,3-dimethyl-2-((S)-2-(methylamino)propanamido)butanoyl)-N-(7-methoxy-4-(4-dimethylamino)phenylamino)quinazolin-6-yl)pyrrolidine-2-carboxamide dihydrochloride] | > 10 µM | > 10 µM
≤ 0.1 µM | CN[C@@H](C)C(=O)N[C@H](C(=O)N1CCC[C@H]1C(=O)Nc1cc2c(Nc3ccc(N4CCCC4)cc3)ncnc2cc1OC)C(C)(C)C [Example 65, (S)-1-((S)-3,3-dimethyl-2-((S)-2-(methylamino)propanamido)butanoyl)-N-(7-methoxy-4-(4-(pyrrolidin-1-yl)phenylamino)quinazolin-6-yl)pyrrolidine-2-carboxamide dihydrochloride] | > 10 µM | > 10 µM
≤ 0.1 µM | CN[C@@H](C)C(=O)N[C@H](C(=O)N1CCC[C@H]1C(=O)Nc1cc2c(Nc3ccc(N4CCCCC4)cc3)ncnc2cc1OC)C(C)(C)C [Example 66, (S)-1-((S)-3,3-dimethyl-2-((S)-2-(methylamino)propanamido)butanoyl)-N-(7-methoxy-4-(4-(piperidin-1-yl)phenylamino)quinazolin-6-yl)pyrrolidine-2-carboxamide dihydrochloride] | > 10 µM | > 10 µM
≤ 0.1 µM | CN[C@@H](C)C(=O)N[C@H](C(=O)N1CCC[C@H]1C(=O)Nc1cc2c(Nc3ccc(N4CCN(C)CC4)cc3)ncnc2cc1OC)C(C)(C)C [Example 67, (S)-1-((S)-3,3-dimethyl-2-((S)-2-(methylamino)propanamido)butanoyl)-N-(7-methoxy-4-(4-(4-methylpiperazin-1-yl)phenylamino)quinazolin-6-yl)pyrrolidine-2-carboxamide dihydrochloride] | > 10 µM | > 10 µM
≤ 0.1 µM | CCN(CC)c1ccc(Nc2ncnc3cc(OC)c(NC(=O)[C@@H]4CCCN4C(=O)[C@@H](NC(=O)[C@H](C)NC)C(C)(C)C)cc23)cc1 [Example 68, (S)-1-((S)-3,3-dimethyl-2-((S)-2-(methylamino)propanamido)butanoyl)-N-(7-methoxy-4-(4-diethylamino)phenylamino)quinazolin-6-yl)pyrrolidine-2-carboxamide dihydrochloride] | > 10 µM | > 10 µM
≤ 0.1 µM | CN[C@@H](C)C(=O)N[C@H](C(=O)N1CCC[C@H]1C(=O)Nc1cc2c(Nc3ccc(NC(C)=O)cc3)ncnc2cc1OC)C(C)(C)C [Example 69, (S)—N-(4-(4-acetamidophenylamino)-7-methoxyquinazolin-6-yl)-1-((S)-3,3-dimethyl-2-((S)-2-(methylamino)propanamido)butanoyl)pyrrolidine-2-carboxamide] | > 10 µM | > 10 µM
≤ 0.1 µM | CCN1CCN(c2ccc(Nc3ncnc4cc(OC)c(NC(=O)[C@@H]5CCCN5C(=O)[C@@H](NC(=O)[C@H](C)NC)C(C)(C)C)cc34)cc2C(F)(F)F)CC1 [Example 70, (S)-1-((S)-3,3-dimethyl-2-((S)-2-(methylamino)propanamido)butanoyl)-N-(4-(4-(4-ethylpiperazin-1-yl)-3-(trifluoromethyl)phenylamino)-7-methoxyquinazolin-6-yl)pyrrolidine-2-carboxamide dihydrochloride] | > 10 µM | > 10 µM
≤ 0.1 µM | CCN1CCN(c2ccc(Nc3ncnc4cc(OC)c(NC(=O)[C@@H]5CCCN5C(=O)[C@@H](NC(=O)[C@H](C)NC)C(C)(C)C)cc34)cc2F)CC1 [Example 71, (S)-1-((S)-3,3-dimethyl-2-((S)-2-(methylamino)propanamido)butanoyl)-N-(4-(4-(4-ethylpiperazin-1-yl)-3-fluorophenylamino)-7-methoxyquinazolin-6-yl)pyrrolidine-2-carboxamide dihydrochloride] | > 10 µM | > 10 µM
≤ 0.1 µM | CN[C@@H](C)C(=O)N[C@H](C(=O)N1CCC[C@H]1C(=O)Nc1cc2c(Nc3ccc(N4CCS(=O)(=O)CC4)cc3)ncnc2cc1OC)C(C)(C)C [Example 72, (S)—N-(4-((1,1-dioxide-4-thiomorpholinyl)phenylamino)-7-methoxyquinazolin-6-yl)-1-((S)-3,3-dimethyl-2-((S)-2-(methylamino)propanamido)butanoyl)pyrrolidine-2-carboxamide] | > 10 µM | > 10 µM
≤ 0.1 µM | CN[C@@H](C)C(=O)N[C@H](C(=O)N1CCC[C@H]1C(=O)Nc1cc2c(Nc3ccncc3)ncnc2cc1OC)C(C)(C)C [Example 73, (S)-1-((S)-3,3-dimethyl-2-((S)-2-(methylamino)propanamido)butanoyl)-N-(7-methoxy-4-(pyridin-4-ylamino)quinazolin-6-yl)pyrrolidine-2-carboxamide hydrochloride] | > 10 µM | > 10 µM
≤ 0.1 µM | CNC(=O)c1ccc(Nc2ncnc3cc(OC)c(NC(=O)[C@@H]4CCCN4C(=O)[C@@H](NC(=O)[C@H](C)NC)C(C)(C)C)cc23)cc1 [Example 74, (S)-1-((S)-3,3-dimethyl-2-((S)-2-(methylamino)propanamido)butanoyl)-N-(7-methoxy-4-(4-(methylcarbamoyl)phenylamino)quinazolin-6-yl)pyrrolidine-2-carboxamide] | > 10 µM | > 10 µM
≤ 0.1 µM | CN[C@@H](C)C(=O)N[C@H](C(=O)N1CCC[C@H]1C(=O)Nc1cc2c(Nc3cc(NC(C)=O)ccc3Cl)ncnc2cc1OC)C(C)(C)C [Example 75, (S)—N-(4-(5-acetamino-2-chlorophenylamino)-7-methoxyquinazolin-6-yl)-1-((S)-3,3-dimethyl-2-((S)-2-(methylamino)propanamido)butanoyl)pyrrolidine-2-carboxamide] | > 10 µM | > 10 µM
≤ 0.1 µM | CN[C@@H](C)C(=O)N[C@H](C(=O)N1CCC[C@H]1C(=O)Nc1cc2c(Nc3ccc(NC(=O)c4ccccc4)cc3)ncnc2cc1OC)C(C)(C)C [Example 76, (S)—N-(4-(4-benzamidophenylamino)-7-methoxyquinazolin-6-yl)-1-((S)-3,3-dimethyl-2-((S)-2-(methylamino)propanamido)butanoyl)pyrrolidine-2-carboxamide] | > 10 µM | > 10 µM
